2 compounds from patent US20230049952A1, “METHODS AND COMPOUNDS FOR RESTORING MUTANT P53 FUNCTION” (PMV Pharmaceuticals, Inc., priority 2020, published 2023) can be followed below.

In data set [1] the target is T1, BCRP (Homo sapiens, UniProt Q9UNQ0).
T1 sequence (Q9UNQ0 1-655): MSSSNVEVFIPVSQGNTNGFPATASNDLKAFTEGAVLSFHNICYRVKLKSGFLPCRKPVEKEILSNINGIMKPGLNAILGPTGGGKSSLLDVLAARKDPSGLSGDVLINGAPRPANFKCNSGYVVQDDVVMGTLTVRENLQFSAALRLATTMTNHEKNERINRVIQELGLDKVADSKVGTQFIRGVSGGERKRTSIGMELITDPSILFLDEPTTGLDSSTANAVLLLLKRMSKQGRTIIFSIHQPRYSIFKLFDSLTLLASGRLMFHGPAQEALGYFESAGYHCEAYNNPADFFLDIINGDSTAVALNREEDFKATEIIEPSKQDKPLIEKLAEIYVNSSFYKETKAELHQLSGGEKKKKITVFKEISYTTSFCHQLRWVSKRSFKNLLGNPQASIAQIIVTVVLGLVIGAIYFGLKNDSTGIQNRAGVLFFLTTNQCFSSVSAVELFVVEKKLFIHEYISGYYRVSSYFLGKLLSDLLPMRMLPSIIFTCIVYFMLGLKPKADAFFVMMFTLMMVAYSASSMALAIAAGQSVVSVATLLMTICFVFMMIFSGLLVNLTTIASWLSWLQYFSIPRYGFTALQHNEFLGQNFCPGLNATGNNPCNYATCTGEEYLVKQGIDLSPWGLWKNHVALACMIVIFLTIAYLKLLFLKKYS
As to the kind of experiment: BCRP substrate assessment, BCRP-MDCK monolayers. In kind it is in vitro ADME. How it is done:
(§1) BCRP-MDCK cell monolayers were prepared at Absorption Systems. […] Each determination was performed in duplicate.

In data set [2] the test system is BCRP. The data set is described as follows: cell batch quality control, BCRP-MDCK monolayers. It counts as in vitro ADME. The note with it: dog; BCRP-MDCK cell batch QC; passage 23. The procedure: as §1
Data set [3] addresses T1, BCRP. As to the kind of experiment: in vitro.
Data set [4] concerns the target T1, BCRP. As to the kind of experiment: BCRP substrate assessment, Caco-2 monolayers. In kind it is in vitro ADME. The arrangement: host or cells: Caco-2 (clone C2BBe1).
The next data set concerns human hepatocytes. The note with it: male, 72 h, 100 μM.

The efflux ratio is the permeability from basolateral to apical divided by that in the opposite direction, in the common usage. Regarding `Nc1nc(Cl)nc2c1ncn2[C@H]1C[C@H](O)[C@@H](CO)O1` [Cladribine, cladribine], the “BCRP Substrate Classification” value is recorded as “Positive” at BCRP [1] (BCRP-MDCK, Cladribine) and “Positive” on BCRP [4] (Caco-2, Cladribine). Further, the recovery at 120 min came out at 91.3% at BCRP [1] (dog, pH 7.4, BCRP-MDCK, Cladribine, A-to-B); 92.9% at BCRP [1] (dog, pH 7.4, BCRP-MDCK, Cladribine, B-to-A); 93.5% at BCRP [1] (dog, pH 7.4, with Ko143 0.5 µM, BCRP-MDCK, Cladribine + 0.5 μM Ko143, A-to-B); 107% at BCRP [1] (dog, pH 7.4, with Ko143 0.5 µM, BCRP-MDCK, Cladribine + 0.5 μM Ko143, B-to-A); 80.5% at BCRP [4] (human, Caco-2, pH 7.4, Caco-2, Cladribine, A-to-B); 85.6% on BCRP [4] (human, Caco-2, pH 7.4, Caco-2, Cladribine, B-to-A). The recovery at 120 min at BCRP [4] (human, Caco-2, pH 7.4, with Ko143 0.5 µM, Caco-2, Cladribine + 0.5 μM Ko143, A-to-B) was 89.8%; at BCRP [4] (human, Caco-2, pH 7.4, with Ko143 0.5 µM, Caco-2, Cladribine + 0.5 μM Ko143, B-to-A), 87.7%. Also, the Papp A→B at 120 min on BCRP [1] (dog, pH 7.4, BCRP-MDCK, Cladribine, A-to-B, read-out: Papp AVG) is 0.211 ×10⁻⁶ cm/s; at BCRP [1] (dog, pH 7.4, BCRP-MDCK, Cladribine, A-to-B, read-out: Papp R1), 0.142 ×10⁻⁶ cm/s; at BCRP [1] (dog, pH 7.4, BCRP-MDCK, Cladribine, A-to-B, read-out: Papp R2) it was 0.28 ×10⁻⁶ cm/s; at BCRP [4] (human, Caco-2, pH 7.4, Caco-2, Cladribine, A-to-B, read-out: Papp AVG), 0.58 ×10⁻⁶ cm/s; on BCRP [4] (human, Caco-2, pH 7.4, Caco-2, Cladribine, A-to-B, read-out: Papp R1), 0.681 ×10⁻⁶ cm/s; on BCRP [4] (human, Caco-2, pH 7.4, Caco-2, Cladribine, A-to-B, read-out: Papp R2), 0.478 ×10⁻⁶ cm/s. The Papp B→A at 120 min amounted to 17.6 ×10⁻⁶ cm/s at BCRP [1] (dog, pH 7.4, BCRP-MDCK, Cladribine, B-to-A, read-out: Papp AVG); 15.6 ×10⁻⁶ cm/s at BCRP [1] (dog, pH 7.4, BCRP-MDCK, Cladribine, B-to-A, read-out: Papp R1); 19.6 ×10⁻⁶ cm/s on BCRP [1] (dog, pH 7.4, BCRP-MDCK, Cladribine, B-to-A, read-out: Papp R2); 18.5 ×10⁻⁶ cm/s at BCRP [4] (human, Caco-2, pH 7.4, Caco-2, Cladribine, B-to-A, read-out: Papp AVG); 17.7 ×10⁻⁶ cm/s on BCRP [4] (human, Caco-2, pH 7.4, Caco-2, Cladribine, B-to-A, read-out: Papp R1); 19.3 ×10⁻⁶ cm/s on BCRP [4] (human, Caco-2, pH 7.4, Caco-2, Cladribine, B-to-A, read-out: Papp R2). For the same compound, the efflux ratio at 120 min on BCRP [1] (dog, pH 7.4, BCRP-MDCK, Cladribine) amounted to 83.3; at BCRP [4] (human, pH 7.4, Caco-2, Cladribine) it was 32. The Papp A→B in the data set on BCRP [2] worked out at 0.136 ×10⁻⁶ cm/s; at BCRP [3] (Caco-2, pH 7.4, Papp AVG, Caco-2, Cladribine alone, A-to-B) it was 0.58 ×10⁻⁶ cm/s; on BCRP [3] (Caco-2, pH 7.4, Papp R1, Caco-2, Cladribine alone, A-to-B), 0.681 ×10⁻⁶ cm/s; on BCRP [3] (Caco-2, pH 7.4, Papp R2, Caco-2, Cladribine alone, A-to-B) it was 0.478 ×10⁻⁶ cm/s. Further, the Papp B→A was 18.4 ×10⁻⁶ cm/s in the data set on BCRP [2]; 18.5 ×10⁻⁶ cm/s at BCRP [3] (Caco-2, pH 7.4, Papp AVG, Caco-2, Cladribine alone, B-to-A); 14.6 ×10⁻⁶ cm/s on BCRP [3] (Caco-2, pH 7.4, Papp AVG, IC50 determination, Caco-2, Cladribine alone, B-A); 17.7 ×10⁻⁶ cm/s on BCRP [3] (Caco-2, pH 7.4, Papp R1, Caco-2, Cladribine alone, B-to-A); 17.8 ×10⁻⁶ cm/s on BCRP [3] (Caco-2, pH 7.4, Papp R1, IC50 determination, Caco-2, Cladribine alone, B-A); 19.3 ×10⁻⁶ cm/s at BCRP [3] (Caco-2, pH 7.4, Papp R2, Caco-2, Cladribine alone, B-to-A). This compound displayed a Papp B→A on BCRP [3] (Caco-2, pH 7.4, Papp R2, IC50 determination, Caco-2, Cladribine alone, B-A) of 11.5 ×10⁻⁶ cm/s. For the same compound, the efflux ratio turned out to be 135 in the data set on BCRP [2] and 32 at BCRP [3] (Caco-2, pH 7.4). The recovery amounted to 103% at BCRP [3] (Caco-2, pH 7.4, % Recovery, IC50 determination, Caco-2, Cladribine alone, B-A); 80.5% at BCRP [3] (Caco-2, pH 7.4, Recovery (%), Caco-2, Cladribine alone, A-to-B); 85.6% on BCRP [3] (Caco-2, pH 7.4, Recovery (%), Caco-2, Cladribine alone, B-to-A).

Take `CN(C)CCCN1c2ccccc2Sc2ccc(Cl)cc21` [Chlorpromazine, chlorpromazine]: in the data set with human hepatocytes, the “% MTS Absorbance Relative to Vehicle Control” value is given as 59.4% and the “Formazan Absorbance (n = 6) Mean” value amounted to 0.174.
